ChEMBL document CHEMBL4837240 (J Med Chem, 2021)

Legend:
MDA-MB-436 = assay: Anticancer activity against human MDA-MB-436 cells assessed as cell viability incubated for 48 hrs by MTT assay; settings: MDA-MB-436, 48 h
MDA-MB-231 = assay: Anticancer activity against human MDA-MB-231 cells assessed as cell viability incubated for 48 hrs by MTT assay; settings: MDA-MB-231, 48 h

| Structure (SMILES) | IC50 (MDA-MB-436) [µM] | IC50 (MDA-MB-231) [µM] |
| --- | --- | --- |
| C=CS(=O)(=O)N1CCN(c2ncnc3sc(-c4ccc(C(=O)N5CCN(C)CC5)cc4)cc23)CC1 | 9.66 | 8.65 |
| COc1ccccc1NC(=O)N1CCN(c2ncnc3sc(-c4ccc(N5CCN(C)CC5)cc4)cc23)CC1 | 26.3 | 23.2 |
| C=CS(=O)(=O)N1CCN(c2ncnc3sc(-c4cn(S(=O)(=O)c5ccccc5)c5ccccc45)cc23)CC1 | 38 | 40.4 |
| C=CS(=O)(=O)N1CCN(c2ncnc3sc(-c4ccc(N5CCN(C)CC5)cc4)cc23)CC1 | 8.76 | 7.55 |
| C=CS(=O)(=O)N1CCN(c2nc(OC[C@H]3CCCN3C)nc3sc(-c4ccc(OC)nc4)cc23)CC1 | 4.98 | 3.56 |
| C=CS(=O)(=O)N1CCN(c2ncnc3sc(-c4ccnc(Cl)c4)cc23)CC1 | 30.1 | 27.7 |
| CN1CCN(c2ccc(-c3cc4c(N5CCN(C(=O)Nc6ccc(Cl)cc6)CC5)ncnc4s3)cc2)CC1 | 9.27 | 5.44 |
| C=CS(=O)(=O)N1CCN(c2ncnc3sc(-c4cccs4)cc23)CC1 | 39 | 34.1 |
| C=CS(=O)(=O)N1CCN(c2nc(OC[C@H]3CCCN3C)nc3sc(-c4ccc(N5CCN(C)CC5)cc4)cc23)CC1 | 0.54 | 0.76 |
| CN1CCN(c2ccc(-c3cc4c(N5CCN(C(=O)Nc6ccc(OC(F)(F)F)cc6)CC5)ncnc4s3)cc2)CC1 | 6.25 | 4.6 |
| C=CS(=O)(=O)N1CCN(c2ncnc3sc(-c4cc(Br)cnc4F)cc23)CC1 | 28.4 | 24.1 |
| CCS(=O)(=O)N1CCN(c2ncnc3sc(-c4ccc(N5CCN(C)CC5)cc4)cc23)CC1 | 10.6 | 7.33 |
| C=CS(=O)(=O)N1CCN(c2ncnc3sc(-c4ccc(OC)cc4)cc23)CC1 | 28.4 | 29.9 |
| C=CS(=O)(=O)N1CCN(c2ncnc3sc(-c4cccc5ncccc45)cc23)CC1 | 25.9 | 21 |
| CN1CCN(c2ccc(-c3cc4c(N5CCN(C(=O)Nc6ccccc6F)CC5)ncnc4s3)cc2)CC1 | 14.3 | 10.3 |
| C=CS(=O)(=O)N1CCN(c2ncnc3sc(-c4ccc(F)nc4)cc23)CC1 | 17.5 | 16 |
| CCCNC(=O)N1CCN(c2ncnc3sc(-c4ccc(N5CCN(C)CC5)cc4)cc23)CC1 | 12.4 | 8.33 |

| Structure (SMILES) | IC50 (MDA-MB-436) [µM] | IC50 (MDA-MB-231) [µM] |
| --- | --- | --- |
| C=CS(=O)(=O)N1CCN(c2nc(OC[C@H]3CCCN3C)nc3sc(-c4ccc(N5CCN(C)CC5)cc4)cc23)[C@@H](C)C1 | 1.92 | 2.88 |
| C=CS(=O)(=O)N1CCN(c2nc(OC[C@H]3CCCN3C)nc3sc(-c4ccc(C(=O)N5CCN(C)CC5)cc4)cc23)[C@@H](C)C1 | 1.53 | 3.33 |
| C=CS(=O)(=O)N1CCN(c2ncnc3sc(-c4cnn(Cc5ccccc5)c4)cc23)CC1 | 18.3 | 19.1 |
| CN1CCN(c2ccc(-c3cc4c(N5CCN(C(=O)Nc6ccc(F)cc6F)CC5)ncnc4s3)cc2)CC1 | 20.2 | 11.4 |
| C=CS(=O)(=O)N1CCN(c2ncnc3sc(-c4ccc(N5CCOCC5)cc4)cc23)CC1 | 17.7 | 18.4 |
| C=CS(=O)(=O)N1CCN(c2ncnc3sc(-c4c(C)noc4C)cc23)CC1 | 34.6 | 28.2 |
| CN1CCN(c2ccc(-c3cc4c(N5CCN(C(=O)Nc6ccc(C#N)cc6)CC5)ncnc4s3)cc2)CC1 | 5.01 | 3.93 |
| C=CS(=O)(=O)N1CCN(c2ncnc3sc(-c4ccc(C#N)cc4)cc23)CC1 | 9.17 | 8.05 |
| COc1ccc(NC(=O)N2CCN(c3ncnc4sc(-c5ccc(N6CCN(C)CC6)cc5)cc34)CC2)cc1 | 30.1 | 20.9 |
| C=CS(=O)(=O)N1CCN(c2ccn3ncc(-c4ccccc4)c3n2)CC1 | 19.5 | 38.3 |
| CN1CCN(c2ccc(-c3cc4c(N5CCN(C(=O)Nc6cc(C(F)(F)F)ccc6F)CC5)ncnc4s3)cc2)CC1 | 8.84 | 9.09 |
| C=CC(=O)N1CCN(c2nc(OC[C@H]3CCCN3C)nc3sc(-c4ccc(C(=O)N5CCN(C)CC5)cc4)cc23)CC1 | 12.2 | 5.39 |
| C=CS(=O)(=O)N1CCN(c2nc(OCC3CCCCN3C)nc3sc(-c4ccc(C#N)cc4)cc23)CC1 (configuration not stated) | 4.08 | 3.18 |
| C=CS(=O)(=O)N1CCN(c2ncnc3sc(-c4cccc5ccccc45)cc23)CC1 | 28.1 | 23.7 |
| CN1CCN(c2ccc(-c3cc4c(N5CCN(S(=O)(=O)C6CC6)CC5)ncnc4s3)cc2)CC1 | 10.6 | 11.5 |
| CN1CCN(c2ccc(-c3cc4c(N5CCN(C(=O)Nc6cccc(F)c6)CC5)ncnc4s3)cc2)CC1 | 18.3 | 13.2 |
| C=CS(=O)(=O)N1CCN(c2nc(OC[C@H]3CCCN3C)nc3sccc23)CC1 | > 50 | > 50 |

The remaining lines, values ahead:

| IC50 (MDA-MB-436) [µM] | IC50 (MDA-MB-231) [µM] | Structure (SMILES) |
| --- | --- | --- |
| 7.09 | 7.59 | CN1CCN(c2ccc(-c3cc4c(N5CCN(C(=O)Nc6ccccc6)CC5)ncnc4s3)cc2)CC1 |
| 23.4 | 47.9 | C=CS(=O)(=O)N1CCN(c2ncnc3ccc(-c4ccccc4)cc23)CC1 |
| 11.9 | 9.27 | C=CS(=O)(=O)N1CCN(c2ncnc3sc(-c4ccc(OC)nc4)cc23)CC1 |
| 7.57 | 8.13 | CN1CCN(c2ccc(-c3cc4c(N5CCN(S(=O)(=O)N6CCCCC6)CC5)ncnc4s3)cc2)CC1 |
| 2.29 | 3.01 | C=CS(=O)(=O)N1CCN(c2nc(OC[C@H]3CCCN3C)nc3sc(-c4ccc(C#N)cc4)cc23)CC1 |
| 7.08 | 6.41 | C=CS(=O)(=O)N1CCN(c2ncnc3sc(-c4ccc(C(F)(F)F)cc4)cc23)CC1 |
| 10.7 | 4.42 | CN1CCN(c2ccc(-c3cc4c(N5CCN(S(=O)(=O)c6ccccc6)CC5)nc(OCC5CCCCN5C)nc4s3)cc2)CC1 (configuration not stated) |
| 6.92 | 6.18 | C=CS(=O)(=O)N1CCN(c2ncnc3sc(-c4ccc(N5CCN(C)CC5)cc4)cc23)[C@@H](C)C1 |
| 3.44 | 4.2 | C=CS(=O)(=O)N1CCN(c2nc(OC[C@H]3CCCN3C)nc3sc(-c4ccc(C(=O)N5CCN(C)CC5)cc4)cc23)CC1 |
| > 50 | > 50 | C=CS(=O)(=O)N1CCN(c2ncnc3sc(C4=CCCCC4)cc23)CC1 |
| 16.2 | 42.3 | C=CS(=O)(=O)N1CCN(c2ccn3ncc(-c4ccc(N5CCOCC5)cc4)c3n2)CC1 |
| 3.44 | 4.2 | CCS(=O)(=O)N1CCN(c2nc(OC[C@H]3CCCN3C)nc3sc(-c4ccc(C(=O)N5CCN(C)CC5)cc4)cc23)CC1 |
| 25.3 | 25.4 | C=CS(=O)(=O)N1CCN(c2ccnc3ccc(-c4ccccc4)cc23)CC1 |
| 8.67 | 5.9 | CN1CCN(c2ccc(-c3cc4c(N5CCN(S(=O)(=O)/C=C/c6ccccc6)CC5)ncnc4s3)cc2)CC1 |
| 11.3 | 8.43 | CC(C)c1cccc(C(C)C)c1NC(=O)N1CCN(c2ncnc3sc(-c4ccc(N5CCN(C)CC5)cc4)cc23)CC1 |
| 15.1 | 10.4 | C=CS(=O)(=O)N1CCN(c2ncnc3sc(-c4cn(C)nc4C(F)(F)F)cc23)CC1 |
| 21.1 | 54.2 | C=CS(=O)(=O)N1CCN(c2ncnc3sc(-c4ccccc4)cc23)CC1 |
